Measurements from patent US20020115884A1, “Process for producing a hydrogenation product of an aromatic carboxylic acid” (priority 2000, published 2002).

Experiment: Solubility in water
Type: physicochemical

SMILES | Solubility in water (Temperature 150° C.) | Solubility in water (Temperature 200° C.)
O=C(O)c1ccc(C(=O)O)cc1 [Terephthalic acid] | 0.25 g/100 g-water | 1.7 g/100 g-water
O=C(O)c1cccc(C(=O)O)c1 [Isophthalic acid] | 2.7 g/100 g-water | 24.2 g/100 g-water
O=C(O)c1ccc2cc(C(=O)O)ccc2c1 [2,6-naphthalenedicarboxylic acid] | 0.03 g/100 g-water | 0.21 g/100 g-water
O=C(O)c1ccc(-c2ccc(C(=O)O)cc2)cc1 [4,4′-biphenyldicarboxylic acid] | 0.01 g/100 g-water | 0.04 g/100 g-water
